# Assay results as given in ChEMBL document CHEMBL1201862, “PubChem BioAssay data set” (2004).
# “And” between values parts separate entries of the source, which are not always exact repeats. Equal entries are not always repeated.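 Assay format: 96-well plates, 48-hour exposure. Abbreviation: GI50, concentration required for 50% inhibition of growth.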 The source made the active and inactive calls. No stated cut-off is given here; in the data, active = GI50 up to about 1.1 µM and inactive = higher.
# What was measured:
# Assay in all cases: NCI anticancer screen, dose series, 48 h
# 786-0 = tested on: 786-0
# A498 = tested on: A498
# A549 = tested on: A549
# ACHN = tested on: ACHN
# CAKI-1 = tested on: CAKI-1
# CCRF-CEM = tested on: CCRF-CEM
# COLO 205 = tested on: COLO 205
# DLD-1 = tested on: DLD-1
# DMS-273 = tested on: DMS-273
# EKVX = tested on: EKVX
# HCC 2998 = tested on: HCC 2998
# HCT-116 = tested on: HCT-116
# HCT-15 = tested on: HCT-15
# HL-60 = tested on: HL-60
# HOP-18 = tested on: HOP-18
# HOP-62 = tested on: HOP-62
# HOP-92 = tested on: HOP-92
# HT-29 = tested on: HT-29
# IGROV-1 = tested on: IGROV-1
# K562 = tested on: K562
# KM-20L2 = tested on: KM-20L2
# KM12 = tested on: KM12
# LOX IMVI = tested on: LOX IMVI
# LXFL 529 = tested on: LXFL 529
# M14 = tested on: M14
# M19-MEL = tested on: M19-MEL
# MOLT-4 = tested on: MOLT-4
# Malme-3M = tested on: Malme-3M
# NCI-H226 = tested on: NCI-H226
# NCI-H23 = tested on: NCI-H23
# NCI-H460 = tested on: NCI-H460
# NCI-H522 = tested on: NCI-H522
# OVCAR-3 = tested on: OVCAR-3
# OVCAR-4 = tested on: OVCAR-4
# OVCAR-5 = tested on: OVCAR-5
# OVCAR-8 = tested on: OVCAR-8
# RPMI-8226 = tested on: RPMI-8226
# RXF 393 = tested on: RXF 393
# RXF 631 = tested on: RXF 631
# SF-268 = tested on: SF-268
# SF-295 = tested on: SF-295
# SF-539 = tested on: SF-539
# SK-MEL-28 = tested on: SK-MEL-28
# SK-MEL-2 = tested on: SK-MEL-2
# SK-MEL-5 = tested on: SK-MEL-5
# SK-OV-3 = tested on: SK-OV-3
# SN12C = tested on: SN12C
# SNB-19 = tested on: SNB-19
# SNB-75 = tested on: SNB-75
# SNB-78 = tested on: SNB-78
# SR = tested on: SR
# SW-620 = tested on: SW-620
# TK-10 = tested on: TK-10
# U-251 = tested on: U-251
# UACC-257 = tested on: UACC-257
# UACC-62 = tested on: UACC-62
# UO-31 = tested on: UO-31
# XF498 = tested on: XF498
# DMS-114 = tested on: DMS-114
# Hs-578T = tested on: Hs-578T
# MCF7 = tested on: MCF7
# MDA-N = tested on: MDA-N
# NCI/ADR-RES = tested on: NCI/ADR-RES
# T47D = tested on: T47D
smiles,measurement,setting,value
CC(=O)OC1C(=O)C(O)C(C)OC1O[C@@H]1C[C@@]2(C)[C@@H]3CC=C4[C@@H](C[C@H](O)C(=O)C4(C)C)[C@]3(C)C(=O)C[C@]2(C)[C@H]1[C@@](C)(O)C(=O)/C=C/C(C)(C)O (stereo partly drawn),GI50,786-0,1.53 µM (inactive)
same,GI50,A498,577 nM (active)
same,GI50,A549,2.64 µM (inactive)
same,GI50,ACHN,2.74 µM (inactive)
same,GI50,CAKI-1,1.36 µM (inactive)
same,GI50,CCRF-CEM,0.662 µM (active)
same,GI50,COLO 205,885 nM (active)
same,GI50,DLD-1,1.3 µM (inactive)
same,GI50,DMS-273,0.658 µM (active)
same,GI50,EKVX,3.86 µM (inactive)
same,GI50,HCC 2998,2.27 µM (inactive)
same,GI50,HCT-116,2.2 µM (inactive)
same,GI50,HCT-15,1.08 µM
same,GI50,HL-60,1.91 µM (inactive)
same,GI50,HOP-18,1.22 µM (inactive)
same,GI50,HOP-62,2.96 µM (inactive)
same,GI50,HOP-92,1.28 µM (inactive)
same,GI50,HT-29,1.35 µM (inactive)
same,GI50,IGROV-1,2.6 µM (inactive)
same,GI50,K562,3.35 µM (inactive)
same,GI50,KM-20L2,1.39 µM (inactive)
same,GI50,KM12,> 7.53 µM (inactive)
same,GI50,LOX IMVI,706 nM (active)
same,GI50,LXFL 529,0.881 µM (active)
same,GI50,M14,918 nM (active)
same,GI50,M19-MEL,2.44 µM (inactive)
same,GI50,MOLT-4,3.51 µM (inactive)
same,GI50,Malme-3M,1.04 µM (active)
same,GI50,NCI-H226,693 nM (active)
same,GI50,NCI-H23,6 µM (inactive)
same,GI50,NCI-H460,1.98 µM (inactive)
same,GI50,NCI-H522,0.975 µM (active)
same,GI50,OVCAR-3,1.7 µM (inactive)
same,GI50,OVCAR-4,1.02 µM (active)
same,GI50,OVCAR-5,7.29 µM (inactive)
same,GI50,OVCAR-8,6.28 µM (inactive)
same,GI50,RPMI-8226,0.44 µM (active)
same,GI50,RXF 393,845 nM (active)
same,GI50,RXF 631,2.39 µM (inactive)
same,GI50,SF-268,0.843 µM (active)
same,GI50,SF-295,3.03 µM (inactive)
same,GI50,SF-539,675 nM (active)
same,GI50,SK-MEL-28,447 nM (active)
same,GI50,SK-MEL-2,748 nM (active)
same,GI50,SK-MEL-5,1.47 µM (inactive)
same,GI50,SK-OV-3,3.06 µM (inactive)
same,GI50,SN12C,2.61 µM (inactive)
same,GI50,SNB-19,1.62 µM (inactive)
same,GI50,SNB-75,710 nM (active)
same,GI50,SNB-78,0.916 µM (active)
same,GI50,SR,1.52 µM (inactive)
same,GI50,SW-620,1.12 µM (inactive)
same,GI50,TK-10,1.85 µM (inactive)
same,GI50,U-251,1.16 µM (inactive)
same,GI50,UACC-257,910 nM (active)
same,GI50,UACC-62,3.15 µM (inactive)
same,GI50,UO-31,3.18 µM (inactive)
same,GI50,XF498,0.297 µM (active)
O=C(NCc1ccc2ccc3cccnc3c2n1)c1ccc[n+](Cc2ccccc2)c1,GI50,786-0,> 100 µM (inactive)
same,GI50,A549,> 100 µM (inactive)
same,GI50,ACHN,> 100 µM (inactive)
same,GI50,CCRF-CEM,> 100 µM (inactive)
same,GI50,COLO 205,> 100000 nM (inactive)
same,GI50,DLD-1,> 100 µM (inactive)
same,GI50,DMS-114,36.8 µM (inactive)
same,GI50,DMS-273,> 100 µM (inactive)
same,GI50,EKVX,> 100 µM (inactive)
same,GI50,HCC 2998,> 100 µM (inactive)
same,GI50,HCT-116,> 100 µM (inactive)
same,GI50,HCT-15,> 100 µM
same,GI50,HL-60,> 100 µM (inactive)
same,GI50,HOP-18,> 100 µM (inactive)
same,GI50,HOP-62,> 100 µM (inactive)
same,GI50,HOP-92,37.7 µM (inactive)
same,GI50,HT-29,98.6 µM (inactive)
same,GI50,IGROV-1,> 100 µM (inactive)
same,GI50,K562,83.8 µM (inactive)
same,GI50,KM-20L2,> 100 µM (inactive)
same,GI50,KM12,91.4 µM (inactive)
same,GI50,LOX IMVI,> 100000 nM (inactive)
same,GI50,LXFL 529,67.6 µM (inactive)
same,GI50,M14,> 100000 nM (inactive)
same,GI50,M19-MEL,60.8 µM (inactive)
same,GI50,MOLT-4,> 100 µM (inactive)
same,GI50,Malme-3M,75.2 µM (inactive)
same,GI50,NCI-H226,> 100000 nM (inactive)
same,GI50,NCI-H23,> 100 µM (inactive)
same,GI50,NCI-H460,> 100 µM (inactive)
same,GI50,NCI-H522,> 100 µM (inactive)
same,GI50,OVCAR-3,55.6 µM (inactive)
same,GI50,OVCAR-4,> 100 µM (inactive)
same,GI50,OVCAR-5,> 100 µM (inactive)
same,GI50,OVCAR-8,> 100 µM (inactive)
same,GI50,RPMI-8226,54.8 µM (inactive)
same,GI50,RXF 393,> 100000 nM (inactive)
same,GI50,RXF 631,> 100 µM (inactive)
same,GI50,SF-268,> 100 µM (inactive)
same,GI50,SF-295,> 100 µM (inactive)
same,GI50,SF-539,> 100000 nM (inactive)
same,GI50,SK-MEL-28,> 100000 nM (inactive)
same,GI50,SK-MEL-2,> 100000 nM (inactive)
same,GI50,SK-MEL-5,74 µM (inactive)
same,GI50,SK-OV-3,> 100 µM (inactive)
same,GI50,SN12C,> 100 µM (inactive)
same,GI50,SNB-19,> 100 µM (inactive)
same,GI50,SNB-75,> 100000 nM (inactive)
same,GI50,SR,> 100 µM (inactive)
same,GI50,SW-620,> 100 µM (inactive)
same,GI50,TK-10,> 100 µM (inactive)
same,GI50,U-251,> 100 µM (inactive)
same,GI50,UACC-257,> 100000 nM (inactive)
same,GI50,UACC-62,> 100 µM (inactive)
same,GI50,UO-31,> 100 µM (inactive)
same,GI50,XF498,> 100 µM (inactive)
C[C@H]1CCC/C=C/[C@@H]2C[C@H](O)C[C@H]2[C@H](O)/C=C/C(=O)O1 [BREFELDIN A],GI50,786-0,< 10 nM (active) and 13.2 nM (active)
same,GI50,A498,< 10 nM (active) and 17.4 nM (active)
same,GI50,COLO 205,14.3 nM (active) and 16.4 nM (active)
same,GI50,DLD-1,0.0134 µM (active)
same,GI50,DMS-273,0.0266 µM (active)
same,GI50,HCT-116,18.2 nM (active) and 23.3 nM (active)
same,GI50,HCT-15,0.0692 µM and 0.043 µM
same,GI50,HOP-18,2.81 µM (inactive)
same,GI50,HOP-92,80 nM (active) and 41.7 nM (active)
same,GI50,HT-29,< 10 nM (active) and 15.8 nM (active)
same,GI50,Hs-578T,< 10 nM (active) and 10.1 nM (active)
same,GI50,K562,36.6 nM (active) and 71.5 nM (active)
same,GI50,KM-20L2,0.0041 µM (active)
same,GI50,KM12,10.1 nM (active) and 10.2 nM (active)
same,GI50,LOX IMVI,13.2 nM (active) and 12.3 nM (active)
same,GI50,LXFL 529,0.00877 µM (active)
same,GI50,M14,< 16.1 nM (active) and 26.1 nM (active)
same,GI50,MCF7,< 16.4 nM (active) and 26.3 nM (active)
same,GI50,MDA-N,40.6 nM (active) and 42.4 nM (active)
same,GI50,Malme-3M,18.1 nM (active) and 11.3 nM (active)
same,GI50,NCI-H226,19.9 nM (active) and 25.8 nM (active)
same,GI50,NCI-H23,12.5 nM (active) and 25.1 nM (active)
same,GI50,NCI/ADR-RES,< 14.9 nM (active) and 27.4 nM (active)
same,GI50,OVCAR-3,< 18.2 nM (active) and 30.5 nM (active)
same,GI50,OVCAR-4,< 14.7 nM (active) and 24.7 nM (active)
same,GI50,OVCAR-5,< 24 nM (active) and 44 nM (active)
same,GI50,OVCAR-8,< 12.9 nM (active) and 22.2 nM (active)
same,GI50,RXF 393,14.4 nM (active) and 13.4 nM (active)
same,GI50,RXF 631,0.101 µM (active)
same,GI50,SF-539,< 21.4 nM (active) and 21.1 nM (active)
same,GI50,SK-MEL-28,19.2 nM (active) and < 19.9 nM (active)
same,GI50,SK-MEL-2,47.4 nM (active) and 30.6 nM (active)
same,GI50,SK-MEL-5,< 10 nM (active) and 5.83 nM (active)
same,GI50,SK-OV-3,60.1 nM (active) and 44.1 nM (active)
same,GI50,SNB-75,< 10 nM (active) and 8.97 nM (active)
same,GI50,SNB-78,0.00675 µM (active)
same,GI50,SW-620,32.7 nM (active) and < 17.4 nM (active)
same,GI50,T47D,124 nM (active) and 71.5 nM (active)
same,GI50,TK-10,36.7 nM (active) and 40.8 nM (active)
same,GI50,U-251,68.1 nM (active) and 36.7 nM (active)
same,GI50,UACC-257,27.5 nM (active) and 16 nM (active)
same,GI50,UACC-62,< 14.2 nM (active) and 18.2 nM (active)
same,GI50,UO-31,23.2 nM (active) and < 18.3 nM (active)
same,GI50,XF498,0.00649 µM (active)
